Laboratory results published in PubChem BioAssay (NCI).
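Where inhibition never reached the appropriate level, the endpoint shown equals the highest concentration tested. Otherwise, values were interpolated linearly from a five-concentration, 48-hour dose response in 96-well plates. Abbreviation: GI50, concentration required for 50% inhibition of growth. TGI denotes the concentration required for complete inhibition of growth.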

What was measured:
Experiment in all cases: NCI tumour cell line growth inhibition, 48 h
CCRF-CEM leukemia = test system: CCRF-CEM leukemia
SNB-19 CNS = test system: SNB-19 CNS
SK-OV-3 ovarian = test system: SK-OV-3 ovarian
HCT-116 colon = test system: HCT-116 colon
U251 CNS = test system: U251 CNS
HL-60(TB) leukemia = test system: HL-60(TB) leukemia
SK-MEL-5 melanoma = test system: SK-MEL-5 melanoma
ACHN renal = test system: ACHN renal
M14 melanoma = test system: M14 melanoma
HCT-15 colon = test system: HCT-15 colon
SK-MEL-2 melanoma = test system: SK-MEL-2 melanoma
HOP-92 NSCLC = test system: HOP-92 NSCLC
786-0 renal = test system: 786-0 renal
NCI/ADR-RES ovarian = test system: NCI/ADR-RES ovarian
KM12 colon = test system: KM12 colon
DU-145 prostate = test system: DU-145 prostate
HT29 colon = test system: HT29 colon
MALME-3M melanoma = test system: MALME-3M melanoma
NCI-H226 lung = test system: NCI-H226 lung
SK-MEL-28 melanoma = test system: SK-MEL-28 melanoma
HS 578T breast = test system: HS 578T breast
MDA-MB-231 breast = test system: MDA-MB-231 breast
UO-31 renal = test system: UO-31 renal
A498 renal = test system: A498 renal
SR leukemia = test system: SR leukemia
HCC-2998 colon = test system: HCC-2998 colon
NCI-H23 lung = test system: NCI-H23 lung
LOX IMVI melanoma = test system: LOX IMVI melanoma
UACC-62 melanoma = test system: UACC-62 melanoma
RXF 393 renal = test system: RXF 393 renal
TK-10 renal = test system: TK-10 renal
SN12C renal = test system: SN12C renal
MCF7 breast = test system: MCF7 breast
COLO 205 colon = test system: COLO 205 colon
OVCAR-8 ovarian = test system: OVCAR-8 ovarian
CAKI-1 renal = test system: CAKI-1 renal
UACC-257 melanoma = test system: UACC-257 melanoma
SF-295 CNS = test system: SF-295 CNS
SF-268 CNS = test system: SF-268 CNS
HOP-62 NSCLC = test system: HOP-62 NSCLC
K-562 leukemia = test system: K-562 leukemia
NCI-H460 lung = test system: NCI-H460 lung
BT-549 breast = test system: BT-549 breast
T-47D breast = test system: T-47D breast
SW-620 colon = test system: SW-620 colon
PC-3 prostate = test system: PC-3 prostate
EKVX NSCLC = test system: EKVX NSCLC
MOLT-4 leukemia = test system: MOLT-4 leukemia
SF-539 CNS = test system: SF-539 CNS
NCI-H522 lung = test system: NCI-H522 lung
OVCAR-5 ovarian = test system: OVCAR-5 ovarian
OVCAR-3 ovarian = test system: OVCAR-3 ovarian
OVCAR-4 ovarian = test system: OVCAR-4 ovarian
MDA-MB-435 = test system: MDA-MB-435
RPMI-8226 leukemia = test system: RPMI-8226 leukemia
A549 NSCLC = test system: A549 NSCLC
IGROV1 ovarian = test system: IGROV1 ovarian
SNB-75 CNS = test system: SNB-75 CNS

## CCNCCCn1c2c(c3cc(OC)c(OC)cc3c1=O)C(=O)c1cc(OC)cnc1-2
CCRF-CEM leukemia
  GI50: 122 nM
  TGI: 23.3 µM
SNB-19 CNS
  GI50: 529 nM
  TGI: > 51.3 µM
SK-OV-3 ovarian
  GI50: 471 nM
  TGI: 2060 nM
HCT-116 colon
  GI50: 376 nM
  TGI: 6.59 µM
U251 CNS
  GI50: 267 nM
  TGI: 9.16 µM
HL-60(TB) leukemia
  GI50: 1040 nM
  TGI: 11.8 µM
SK-MEL-5 melanoma
  GI50: 794 nM
  TGI: 3.3 µM
ACHN renal
  GI50: 341 nM
  TGI: 29.3 µM
M14 melanoma
  GI50: 517 nM
  TGI: 25.8 µM
HCT-15 colon
  GI50: 1390 nM
  TGI: 19.7 µM
SK-MEL-2 melanoma
  GI50: > 38.9 µM
  TGI: > 75.9 µM
HOP-92 NSCLC
  GI50: 4.03 µM
  TGI: > 60.3 µM
786-0 renal
  GI50: 718 nM
  TGI: 6.4 µM
NCI/ADR-RES ovarian
  GI50: 1040 nM
  TGI: 27.2 µM
KM12 colon
  GI50: 3.33 µM
  TGI: 50 µM
DU-145 prostate
  GI50: 639 nM
  TGI: 15 µM
HT29 colon
  GI50: 462 nM
  TGI: 2770 nM
MALME-3M melanoma
  GI50: 10.9 µM
  TGI: 36.6 µM
NCI-H226 lung
  GI50: 1280 nM
  TGI: > 35.8 µM
SK-MEL-28 melanoma
  GI50: 48.5 µM
  TGI: > 63.1 µM
HS 578T breast
  GI50: > 43.9 µM
  TGI: > 70.3 µM
MDA-MB-231 breast
  GI50: 2660 nM
  TGI: 20.3 µM
UO-31 renal
  GI50: 615 nM
  TGI: > 47.2 µM
A498 renal
  GI50: 28 µM
  TGI: > 58.2 µM
SR leukemia
  GI50: 68.5 nM
  TGI: 3.29 µM
HCC-2998 colon
  GI50: 1670 nM
  TGI: 29.5 µM
NCI-H23 lung
  GI50: 736 nM
  TGI: 7.18 µM
LOX IMVI melanoma
  GI50: 313 nM
  TGI: 2320 nM
UACC-62 melanoma
  GI50: 388 nM
  TGI: 8.21 µM
RXF 393 renal
  GI50: 1030 nM
  TGI: 4.77 µM
TK-10 renal
  GI50: > 50.4 µM
  TGI: > 66.4 µM
SN12C renal
  GI50: 837 nM
  TGI: > 51.4 µM
MCF7 breast
  GI50: 120 nM
  TGI: 13 µM
COLO 205 colon
  GI50: 1380 nM
  TGI: > 53.5 µM
OVCAR-8 ovarian
  GI50: 1200 nM
  TGI: 20.1 µM
CAKI-1 renal
  GI50: 339 nM
  TGI: > 50 µM
UACC-257 melanoma
  GI50: 1980 nM
  TGI: > 55 µM
SF-295 CNS
  GI50: 159 nM
  TGI: 11.2 µM
SF-268 CNS
  GI50: 765 nM
  TGI: > 63.1 µM
HOP-62 NSCLC
  GI50: 213 nM
  TGI: 2640 nM
K-562 leukemia
  GI50: 256 nM
  TGI: 22.9 µM
NCI-H460 lung
  GI50: 153 nM
  TGI: 5.11 µM
BT-549 breast
  GI50: 1320 nM
  TGI: 25.5 µM
T-47D breast
  GI50: 711 nM
  TGI: > 100 µM
SW-620 colon
  GI50: 358 nM
  TGI: 19.3 µM
PC-3 prostate
  GI50: 1840 nM
  TGI: 26.8 µM
EKVX NSCLC
  GI50: 15.7 µM
  TGI: > 58.6 µM
MOLT-4 leukemia
  GI50: 95.3 nM
  TGI: 8.08 µM
SF-539 CNS
  GI50: 432 nM
  TGI: 2140 nM
NCI-H522 lung
  GI50: 197 nM
  TGI: 19.6 µM
OVCAR-5 ovarian
  GI50: 3.89 µM
  TGI: 35.1 µM
OVCAR-3 ovarian
  GI50: 1400 nM
  TGI: 18.7 µM
OVCAR-4 ovarian
  GI50: 2560 nM
  TGI: 18.7 µM
MDA-MB-435
  GI50: 1990 nM
  TGI: > 55.6 µM
RPMI-8226 leukemia
  GI50: 440 nM
  TGI: 4.86 µM
A549 NSCLC
  GI50: 2100 nM
  TGI: 33.8 µM
IGROV1 ovarian
  GI50: 1020 nM
  TGI: > 52.8 µM
SNB-75 CNS
  GI50: 474 nM
  TGI: 3.45 µM
